Assay results: patent US20250320245A1, “Nucleoside Analogues for the Treatment of Parasitic Infections” (Universiteit Antwerpen, priority 2021, published 2025)
Where two headings read alike, the source gives them in different places.

Experiments:
Assay type in all cases: cell-based
[1] = Cytotoxicity assay on MRC-5 fibroblasts; conditions: human; for CC50 at 3 day: MRC-5SV2 embryonic lung fibroblasts, Table 1, mean and SEM of two independent experiments, highest concentration 64 μM, read-out: MRC-5 off-target cytotoxicity (CC50); for IC50 at 3 day: MRC-5SV2 human embryonic lung fibroblasts, Table 3, compounds wherein X=N
Protocol: MRC-5SV2 (Sigma-Aldrich/ECACC, catalogue number 84100401) human embryonic lung fibroblasts were used to perform cytotoxicity assays. The cells were cultured in minimum essential medium (MEM, Life Technologies) with Earle's salt medium, supplemented with L-glutamine, NaHCO3 and 5% inactivated fetal bovine serum (iFBS). Cells were seeded at 1.5×10^4 cells/well and 4-fold compound dilutions were immediately added with a highest in-test concentration of 64 μM. After a 3-day incubation, resazurin (Sigma-Aldrich) was added to each well (final concentration of 10 μg mL^−1), and cell viability was assessed by fluorescent reading (Tecan®, GENios) following 4 h of incubation with resazurin (37° C./5% CO2). The results were expressed as percentage reduction in cell growth/viability compared to control wells and the 50% cytotoxic concentration (CC50) was calculated for each of the compounds.

[2] = tested on: T. brucei (Squib 427); assay: In vitro drug susceptibility assay, T. brucei; conditions: Trypanosoma brucei
Protocol: (§1) Drug susceptibility assays with T. brucei (Squib 427), T. evansi type A (RoTat 1.2) and T. equiperdum (BoTat 1.1) were performed under similar conditions. Parasites were cultured in HMI-9 culture medium supplemented with 10% iFBS. To determine in vitro susceptibility of the abovementioned Trypanosoma species, 10 concentrations of a 4-fold dilution series (with a highest in-test concentration of 64 μM) was prepared for each compound, and parasites were seeded at 1.5×10^4 parasite/well. After 72 h of drug exposure at 37° C. with 5% CO2, resazurin was added to the wells (final concentration of 10 μg mL^−1), followed by another incubation for 24 h. Cell viability was determined by fluorescence reading (Tecan®, GENios) and 50% inhibitory concentration (IC50) was calculated for each compound.

[3] = tested on: T. vivax (ILRAD700); assay: Ex vivo drug susceptibility assay, T. vivax; conditions: Trypanosoma vivax
Excerpt: T. congolense (IL3000), the isometamidium (ISM)-resistant T. congolense strain (MSORO M7H), T. evansi type A (RoTat 1.2), T. evansi type B (KETRI 2479) and T. equiperdum (BoTat 1.1) used for in vitro, ex vivo and in vivo experiments were kindly provided by the Institute of Tropical Medicine (ITM), and T. vivax (ILRAD700) and T. congolense (TC13) used for ex vivo and in vivo experiments, were kindly provided by the University of Brussel (VUB).
Ex Vivo Drug Susceptibility Assays for T. vivax, T. congolense ISM-Resistant, and T. evansi Type B
For Trypanosoma species/strains that were not adapted to culture conditions, donor mice were infected intraperitoneally with 10^4 parasites. Around day 5-6 post infection, blood was collected via cardiac puncture and parasites were isolated using mini-anion exchange centrifugation technique (mAECT). 4-fold dilutions of the test compounds were prepared with the highest concentration of 64 μM, and parasites were seeded at 1×10^5 parasite/well. Following 24 h of drug exposure at 37° C. and 5% CO2, resazurin was added to the wells and plates were incubated (37° C./5% CO2) for another 24 h. Cell viability was determined by fluorescence reading (Tecan®, GENios), and IC50 values were calculated by non-linear regression (dose-response curve with variable slope) using Prism 8.0 (GraphPad Software Inc., San Diego, CA, USA).

[4] = tested on: T. congolense (IL3000); assay: In vitro drug susceptibility assay, T. congolense; conditions: Trypanosoma congolense; Table 3; compounds wherein X=N
Protocol: Drug susceptibility assays for T. congolense (IL3000) were performed with parasites cultured in HMI-9 medium supplemented with 15% horse serum. Parasites were seeded at a concentration of 1.5×10^4 parasite/well and exposed to a 4-fold compound dilution series starting at a highest in-test concentration of 64 μM. Plates were incubated for 72 h at 34° C. and 5% CO2, followed by the addition of resazurin (Sigma, Aldrich) and a further incubation period of 24 h. Cell viability was quantified by fluorescence reading (Tecan®, GENios), and IC50 values were calculated by non-linear regression (dose-response curve with variable slope) using Prism 8.0 (GraphPad Software Inc., San Diego, CA, USA).

[5] = tested on: T. evansi type A (RoTat 1.2); assay: In vitro drug susceptibility assay, T. evansi type A; conditions: Table 3; compounds wherein X=N; type not stated; read-out: IC50 T. evansi
Protocol: as §1

[6] = tested on: T. equiperdum (BoTat 1.1); assay: In vitro drug susceptibility assay, T. equiperdum; conditions: Trypanosoma equiperdum; Table 3; compounds wherein X=N
Protocol: as §1

[7] = In vitro evaluation on PMM; conditions: mouse, Table 3, compounds wherein X=N
[8] = tested on: T. cruzi; assay: In vitro evaluation against T. cruzi; conditions: Trypanosoma cruzi; Table 3; compounds wherein X=N
[9] = tested on: L. infantum; assay: In vitro evaluation against L. infantum; conditions: Leishmania infantum; Table 3; compounds wherein X=N
[10] = Table 1, mean and SEM of two independent experiments, read-out: T. brucei in vitro activity (IC50)
[11] = Table 1, mean and SEM of two independent experiments, read-out: T. vivax in vitro activity (IC50)
[12] = Table 3, compounds wherein X=N, read-out: IC50 T. brucei
[13] = Table 3, compounds wherein X=N, read-out: IC50 T. vivax

Structure (SMILES) | IC50 [2, 10] [nM] | IC50 [3, 11] [nM] | IC50 [2, 12] [nM] | IC50 [3, 13] [nM] | IC50 [4] [nM] | IC50 [5] [nM] | IC50 [6] [nM] | IC50 [7] [nM] | IC50 [8] [nM] | IC50 [9] [nM] | CC50 at 3 day [1] [nM] | IC50 at 3 day [1] [nM]
OC[C@H]1O[C@@H](n2ccc3c(SCc4ccccc4)ncnc32)[C@H](O)[C@@H]1O [FH14905] | 19 ± 2 | 32300 ± 4850 |  |  |  |  |  |  |  |  | > 64000 | 
OC[C@H]1O[C@@H](n2ccc3c(SCc4ccc(Cl)c(Cl)c4)ncnc32)[C@H](O)[C@@H]1O [FH15934, 4-S-(3,4-dichlorobenzyl)-N7-(β-D-ribofuranosyl)pyrrolo[2,3-d]pyrimidine] | 85 ± 1 | 8870 ± 90 |  |  |  |  |  |  |  |  | 13900 ± 970 | 
CC(C)CSc1ncnc2c1ccn2[C@@H]1O[C@H](CO)[C@@H](O)[C@H]1O [FH15955, 4-S-2-methylpropyl-N7-(β-D-ribofuranosyl)pyrrolo[2,3-d]pyrimidine] | 32 ± 1 | 21 ± 2 |  |  |  |  |  |  |  |  | > 64000 | 
CCCCCSc1ncnc2c1ccn2[C@@H]1O[C@H](CO)[C@@H](O)[C@H]1O [FH15937, 4—S-pentyl-N7-(β-D-ribofuranosyl)pyrrolo[2,3-d]pyridimidine] | 31 ± 1 | 2190 ± 610 |  |  |  |  |  |  |  |  | 35300 ± 1000 | 
OC[C@H]1O[C@@H](n2ccc3c(SCC4CCCC4)ncnc32)[C@H](O)[C@@H]1O [FH15939, 4-cylopentylmethylthio-N7-(β-D-ribofuranosyl)pyrrolo[2,3-d]pyrimidine] | 32 ± 21 | 690 ± 250 |  |  |  |  |  |  |  |  | 32300 ± 1000 | 
OC[C@H]1O[C@@H](n2ccc3c(SCCc4ccccc4)ncnc32)[C@H](O)[C@@H]1O [FH15953, 4-S-phenethyl-N7-(β-D-ribofuranosyl)pyrrolo[2,3-d]pyrimidine] | 410 ± 10 | 4930 ± 590 |  |  |  |  |  |  |  |  | 28900 ± 1340 | 
OC[C@H]1O[C@@H](n2ccc3c(SC4CCCC4)ncnc32)[C@H](O)[C@@H]1O [FH15952, 4—S-cyclopentyl-N7-(β-D-ribofuranosyl)pyrrolo[2,3-d]pyrimidine] | 91 ± 1 | 620 ± 160 |  |  |  |  |  |  |  |  | 45500 ± 1870 | 
CCC(C)Sc1ncnc2c1ccn2[C@@H]1O[C@H](CO)[C@@H](O)[C@H]1O (stereo partly drawn) [FH15956, 4-S-sec-butyl-N7-(β-D-ribofuranosyl)pyrrolo[2,3-d]pyrimidine] | 360 ± 40 | 1980 ± 940 |  |  |  |  |  |  |  |  | > 64000 | 
CC(C)c1ccc(CSc2ncnc3c2ccn3[C@@H]2O[C@H](CO)[C@@H](O)[C@H]2O)cc1 [FH15941, 4-S-(4-isopropylbenzyl)-N7-(β-D-ribofuranosyl)pyrrolo[2,3-d]pyrimidine] | 440 ± 20 | 2370 ± 1470 |  |  |  |  |  |  |  |  | 26900 ± 1380 | 
CCCSc1ncnc2c1ccn2[C@@H]1O[C@H](CO)[C@@H](O)[C@H]1O [FH15935, 4-S-propyl-N7-(β-D-ribofuranosyl)pyrrolo[2,3-d]pyrimidine] | 30 ± 0.9 | 23 ± 5 |  |  |  |  |  |  |  |  | > 64000 | 
OC[C@H]1O[C@@H](n2ccc3c(SCCCc4ccccc4)ncnc32)[C@H](O)[C@@H]1O [FH15940, 4-(3-phenylpropyl)thio-N7-(β-D-ribofuranosyl)pyrrolo[2,3-d]pyrimidine] | 106 ± 4 | 8710 ± 1190 |  |  |  |  |  |  |  |  | 24300 ± 940 | 
CC(C)CCSc1ncnc2c1ccn2[C@@H]1O[C@H](CO)[C@@H](O)[C@H]1O [FH15954, 4-S-isopentyl-N7-(β-D-ribofuranosyl)pyrrolo[2,3-d]pyrimidine] | 30 ± 4 | 230 ± 20 |  |  |  |  |  |  |  |  | 43200 ± 2630 | 
CCSc1ncnc2c1ccn2[C@@H]1O[C@H](CO)[C@@H](O)[C@H]1O [FH15938, 4-S-ethyl-N7-(β-D-ribofuranosyl)pyrrolo[2,3-d]pyrimidine] | 250 ± 50 | 31 ± 9 |  |  |  |  |  |  |  |  | 28200 ± 2030 | 
CCCCSc1ncnc2c1ccn2[C@@H]1O[C@H](CO)[C@@H](O)[C@H]1O [FH15936] | 30 ± 0.1 | 24 ± 7 |  |  |  |  |  |  |  |  | > 64000 | 

More lines, main results first:

IC50 [2, 10] [nM] | IC50 [3, 11] [nM] | IC50 [2, 12] [nM] | IC50 [3, 13] [nM] | IC50 [4] [nM] | IC50 [5] [nM] | IC50 [6] [nM] | IC50 [7] [nM] | IC50 [8] [nM] | IC50 [9] [nM] | Structure (SMILES) | CC50 at 3 day [1] [nM] | IC50 at 3 day [1] [nM]
540 ± 40 | 460 ± 250 |  |  |  |  |  |  |  |  | CC(C)Sc1ncnc2c1ccn2[C@@H]1O[C@H](CO)[C@@H](O)[C@H]1O [FH15958] | > 64000 | 
260 ± 10 | 1210 ± 420 | 110 | 1200 | 200 | 60 | 10 | > 64000 | 7460 | 7250 | CCCCSc1ncnc2c1cnn2[C@@H]1O[C@H](CO)[C@@H](O)[C@H]1O [JB1033, 4-butylthio-1-β-D-ribofuranosyl-1H-pyrazolo[3,4-d]pyrimidine] | > 64000 | > 64000
31 ± 10 | 2860 ± 260 |  |  |  |  |  |  |  |  | OC[C@H]1O[C@@H](n2ccc3c(SCC4CCCCC4)ncnc32)[C@H](O)[C@@H]1O [FH15962, 4-S-cyclohexylmethyl-N7-(β-D-ribofuranosyl)pyrrolo[2,3-d]pyrimidine] | 19000 | 
190 ± 40 | 3160 ± 710 |  |  |  |  |  |  |  |  | OC[C@H]1O[C@@H](n2ccc3c(SC4CCCCC4)ncnc32)[C@H](O)[C@@H]1O [FH15957, 4-S-cyclohexyl-N7-(β-D-ribofuranosyl)pyrrolo[2,3-d]pyrimidine] | 58800 ± 1370 | 
510 ± 50 | 1360 ± 300 | 450 | 1420 | 290 | 390 | 50 | > 64000 | 5610 | 5040 | CCSc1ncnc2c1cnn2[C@@H]1O[C@H](CO)[C@@H](O)[C@H]1O [JB1032, 4-ethylthio-1-β-D-ribofuranosyl-1H-pyrazolo[3,4-d]pyrimidine] | > 64000 | > 64000
130 ± 8 | 820 ± 270 |  |  |  |  |  |  |  |  | COc1ccc(CSc2ncnc3c2ccn3[C@@H]2O[C@H](CO)[C@@H](O)[C@H]2O)cc1 [FH15960] | > 64000 | 
 |  | 540 | 830 | 70 | 610 | 90 | > 64000 | 2150 | 10800 | CSc1ncnc2c1cnn2[C@@H]1O[C@H](CO)[C@@H](O)[C@H]1O [JB1031, 4-methylthio-1-β-D-ribofuranosyl-1H-pyrazolo[3,4-d]pyrimidine] |  | > 64000
31 ± 1 | 18800 ± 650 |  |  |  |  |  |  |  |  | Cc1ccc(CSc2ncnc3c2ccn3[C@@H]2O[C@H](CO)[C@@H](O)[C@H]2O)cc1 [FH15959, 4-S-(4-methylbenzyl)-N7-(β-D-ribofuranosyl)pyrrolo[2,3-d]pyrimidine] | > 64000 | 
 |  | 50 | 7240 | 30 | 100 | 20 | > 64000 | 6020 | 10100 | OC[C@H]1O[C@@H](n2ncc3c(SCc4ccccc4)ncnc32)[C@H](O)[C@@H]1O [JB1034, 4-benzylthio-1-β-D-ribofuranosyl-1H-pyrazolo[3,4-d]pyrimidine] |  | > 64000
